Laboratory results as given in patent publication US7935719B2, “N-substituted-azacyclylamines as histamine-3 antagonists” (Wyeth LLC, priority 2006, dated 2011).
pKi: −log10 of the molar value. Structures can show the parent of a compound that is named as a salt.

target: T1, Histamine Receptor H3 (Homo sapiens, UniProt Q9Y5N1); assay: Cyclic AMP assay for histamine receptor H3 antagonism activity; assay type: cell-based; design: expressed in transfected cells; settings: stable H3 cells, histamine plus 10 μM forskolin, 30 min at 30° C., HitHunter cAMP kit
Protocol: Cyclic Amp Assay for Histamine Receptor H3 Antagonism Activity.
Stable H3 cells are maintained in tissue culture flask in DMEM with high glucose, 10% FBS, 1× pen/strep, 500 ug/ml GY18, until experiment. Culture media is removed and cells are washed twice with PBS w/Ca+2 and Mg+2 plus 500 μM IBMX. Cells are then detached by tapping on the side of the flask and resuspend in the same buffer. Two thousand cells/well are incubated with 1 μM histamine plus 10 μM forskolin plus various concentrations of compounds in a total volume of 30 μL in 96 well plates for 30 min at 30° C. Final test compound concentrations range from 10^-4 M to 10-9.5 M at full log dilutions. Cyclic AMP levels are measured using HitHunter cAMP kit from Discoverx, cat#900041 according to manufacturer's instruction. Chemiluminescence signals are detected using Top Count (Packard). Cyclic AMP levels in control cells receiving 10 μM forskolin plus 100 nM histamine are considered 0%, and in cells receiving 10 uM forskolin plus 100 nM histamine plus 1 μM clobenpropit are considered 100%. Data are expressed as % control and analyzed using Prizm software. The Kb values are calculated using the following equation, KB=EC50 or IC50/[1+(ligand/Kd)].

T1 sequence (Q9Y5N1 whole entry): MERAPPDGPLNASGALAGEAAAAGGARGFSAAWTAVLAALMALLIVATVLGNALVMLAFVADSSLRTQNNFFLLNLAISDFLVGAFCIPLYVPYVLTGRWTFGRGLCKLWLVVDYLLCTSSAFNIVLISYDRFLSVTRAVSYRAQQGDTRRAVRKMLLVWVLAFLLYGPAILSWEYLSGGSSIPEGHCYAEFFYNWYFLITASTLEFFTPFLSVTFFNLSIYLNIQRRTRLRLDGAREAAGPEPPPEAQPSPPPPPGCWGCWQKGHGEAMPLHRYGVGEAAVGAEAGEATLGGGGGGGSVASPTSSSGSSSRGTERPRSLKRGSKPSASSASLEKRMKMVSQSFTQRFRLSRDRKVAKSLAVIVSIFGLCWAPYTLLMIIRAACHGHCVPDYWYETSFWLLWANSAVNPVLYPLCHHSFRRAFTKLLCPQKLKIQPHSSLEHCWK

`O=C(c1ccc(-n2cnc3ccccc32)cc1)N1CC[C@H](N2CCCCCC2)C1` [Example 11, 1-(4-{[(3S)-3-azepan-1-ylpyrrolidin-1-yl]carbonyl}phenyl)-1H-benzimidazole] and `Cc1nc2ccccc2n1-c1ccc(C(=O)N2CC[C@H](N3CCCCC3)C2)cc1` [Example 28, 2-methyl-1-(4-{[(3S)-3-piperidin-1-ylpyrrolidin-1-yl]carbonyl}phenyl)-1H-benzimidazole] cannot be ordered by Kb: < 10 nM for the first, < 10 nM for the second.

`O=C(c1ccc(-n2ccc3cc(F)ccc32)cc1)N1CC[C@H](N2CCCC2)C1` [Example 37, (3′S)-1′-[4-(5-fluoro-1H-indol-1-yl)benzoyl]-1,3′-bipyrrolidine] was tested, and the Kb was < 10 nM.

target: T1, Histamine Receptor H3; assay: Methyl histamine binding in human histamine H3 receptor cell line; design: expressed in transfected cells; host or cells: HEK293T; settings: membranes of stably transfected HEK293T cells, radioligand 1 nM, Ki from IC50 by Cheng-Prusoff
Protocol: Evaluation of Methyl Histamine Binding in Human Histamine H3 Receptor Cell Line
The affinity of test compounds for the histamine 3 (H3) receptor is evaluated in the following manner. […] Cells are scraped from the plate, transferred to centrifuge tubes, washed one time in PBS by centrifugation in a Sorvall RT7 Plus centrifuge (2000 rpm 10 minutes, 4° C.). The resulting pellets are stored at −80° C. until ready for use. Cells are re-suspended in buffer (50 mM Tris pH=7.5) and placed in a Dounce homogenizer, douncing ten times to homogenize cells. The homogenate is spun down by centrifugation (Sorvall RT7 Plus, 1800 rpm 10 minutes, 4° C.). The supernatant is placed in a Corex tube and spun down by centrifugation (Sorvall RC 5c Plus, 17,000 rpm 20 minutes, 4° C.). The pellet is resuspended in buffer (50 mM Tris, pH 7.5). Protein concentration (ug/ul) is determined using the Micro-BCA Protein Determination. The binding assay is set up in a 96 well microtiter plate in a total volume of 250 uL. Non-specific binding is determined in the presence of 10 uM clobenpropit. The final radioligand concentration is 1 nM. The test compound is serially diluted using the Beckman Biomek2000 to a final approximate range of 100 uM to 100 pM. Membranes are suspended in buffer, homogenized in 2 bursts of ten seconds using a Vitris mechanical homogenizer set at power setting 5. Ten μg of membranes are added to each well. Following a one hour incubation at 30° C., the reaction is terminated by the addition of ice cold buffer and rapid filtration with a Packard Filtermate Harvester through a GF/B filter pre-soaked with 1% PEI for one hour. The plate is dried for one hour at 37° C. and 60 μL Microscint Scintillant is added to each well. The CPM per well is measured on a Packard Top Count NXT. Ki values are determined in nM. […] CPM values are expressed as % specific binding and plotted vs compound concentration. A curve is fitted using a four-parameter logistic fit and the IC50 value is determined. The Ki is calculated from this using the Cheng-Prusoff equation: […]=IC50/1+(L/Kd) where L=concentration of free radioligand used in the assay, and Kd is the dissociation constant of the radioligand for the receptor. L is determined for each experiment by counting an aliquot of the diluted radioligand (corresponding to that added to each well) and the Kd has previously been determined under identical conditions for this cell line/radioligand.

`O=C(c1ccc(-n2ccc3cccc(Cl)c32)cc1)N1CC[C@H](N2CCCC2)C1` [Example 34, (3′S)-1′-[4-(7-chloro-1H-indol-1-yl)benzoyl]-1,3′-bipyrrolidine] and `O=C(c1ccc(-n2ccc3c(Cl)cccc32)cc1)N1CC[C@H](N2CCCC2)C1` [Example 32, (3′S)-1′-[4-(4-chloro-1H-indol-1-yl)benzoyl]-1,3′-bipyrrolidine] cannot be ordered by pKi: > 8.00 for the first, > 8.00 for the second.

`CN1CCN([C@H]2CCN(C(=O)c3ccc(-n4cnc5ccccc54)cc3)C2)CC1` [Example 10, 1-(4-{[(3S)-3-(4-methylpiperazin-1-yl)pyrrolidin-1-yl]carbonyl}phenyl)-1H-benzimidazole] and `CC1CCN([C@H]2CCN(C(=O)c3ccc(-n4cnc5ccccc54)cc3)C2)CC1` [Example 9, 1-(4-{[(3S)-3-(4-methylpiperidin-1-yl)pyrrolidin-1-yl]carbonyl}phenyl)-1H-benzimidazole] cannot be ordered by pKi: < 7.00 for the first, < 7.00 for the second.

`O=C(c1ccc(-n2cnc3ccccc32)cc1)N1CC[C@H](N2CCCCCC2)C1` [Example 11, 1-(4-{[(3S)-3-azepan-1-ylpyrrolidin-1-yl]carbonyl}phenyl)-1H-benzimidazole] and `O=C(c1ccc(-n2cnc3ccccc32)cc1)N1CC[C@H](N2CCCCC2)C1` [Example 13, 1-(4-{[(3S)-3-piperidin-1-ylpyrrolidin-1-yl]carbonyl}phenyl)-1H-benzimidazole] cannot be ordered by pKi: > 8.00 for the first, > 8.00 for the second.

`Cc1nc2ccccc2n1-c1ccc(C(=O)N2CC[C@H](N3CCCCC3)C2)cc1` [Example 28, 2-methyl-1-(4-{[(3S)-3-piperidin-1-ylpyrrolidin-1-yl]carbonyl}phenyl)-1H-benzimidazole] and `Cc1nc2ccccc2n1-c1ccc(C(=O)N2CC[C@H](N3CCCCCC3)C2)cc1` [Example 20, 1-(4-{[(3S)-3-azepan-1-ylpyrrolidin-1-yl]carbonyl}phenyl)-2-methyl-1H-benzimidazole fumaric acid salt] cannot be ordered by pKi: > 8.00 for the first, > 8.00 for the second.

Compared with `Cc1nc2ccccc2n1-c1ccc(C(=O)N2CC[C@H](N3CCCCC3C)C2)cc1` (stereo partly drawn) [Example 23, 2-methyl-1-(4-{[(3S)-3-(2-methylpiperidin-1-yl)pyrrolidin-1-yl]carbonyl}phenyl)-1H-benzimidazole], `Cc1nc2ccccc2n1-c1ccc(C(=O)N2CC[C@H](N3CCC(C)CC3)C2)cc1` [Example 25, 2-methyl-1-(4-{[(3S)-3-(4-methylpiperidin-1-yl)pyrrolidin-1-yl]carbonyl}phenyl)-1H-benzimidazole] is lower in pKi: > 8.00 for the first, 7.30 to 7.60 for the second. The first binds more tightly here.

First: O=C(c1ccc(-n2ncc3ccc(F)cc32)cc1)N1CC[C@H](N2CCCC2)C1 [Example 41, (3′S)-1′-[4-(6-fluoro-1H-indazol-1-yl)benzoyl]-1,3′-bipyrrolidine]
Second: O=C(c1ccc(-n2ncc3cc(F)ccc32)cc1)N1CC[C@H](N2CCCC2)C1 [Example 40, (3′S)-1′-[4-(5-fluoro-1H-indazol-1-yl)benzoyl]-1,3′-bipyrrolidine]
The pKi of the first is lower: 7.60 to 8.00 for the first, > 8.00 for the second.

`Cc1nc2ccccc2n1-c1ccc(CN2CC[C@H](N3CCCC3)C2)cc1` [Example 17, (3′S)-1′-[4-(2-methyl-1H-benzimidazol-1-yl)benzyl]-1,3′-bipyrrolidine] and `Cc1nc2ccccc2n1-c1ccc(CN2CC[C@H](N3CCCCCC3)C2)cc1` [Example 18, 1-(4-{[(3S)-3-azepan-1-ylpyrrolidin-1-yl]methyl}phenyl)-2-methyl-1H-benzimidazole] cannot be ordered by pKi: > 8.00 for the first, > 8.00 for the second.

`c1ccc2c(c1)ncn2-c1ccc(CN2CC[C@H](N3CCCC3)C2)cc1` [Example 14, (3′S)-1′-[4-(1H-benzimidazol-1-yl)benzyl]-1,3′-bipyrrolidine hydrochloride] and `c1ccc2c(c1)ncn2-c1ccc(CN2CC[C@H](N3CCCCC3)C2)cc1` [Example 15, (1-(4-{[(3S)-3-piperidin-1-ylpyrrolidin-1-yl]methyl}phenyl)-1H-benzimidazolefumaric acid salt] cannot be ordered by pKi: > 8.00 for the first, > 8.00 for the second.

`O=C(c1ccc(-n2ccc3cc(F)ccc32)cc1)N1CC[C@H](N2CCCC2)C1` [Example 37, (3′S)-1′-[4-(5-fluoro-1H-indol-1-yl)benzoyl]-1,3′-bipyrrolidine] and `O=C(c1ccc(-n2ccc3cc(Br)ccc32)cc1)N1CC[C@H](N2CCCC2)C1` [Example 35, (3′S)-1′-[4-(5-bromo-1H-indol-1-yl)benzoyl]-1,3′-bipyrrolidine] cannot be ordered by pKi: > 8.00 for the first, > 8.00 for the second.

`N#Cc1ccc2c(cnn2-c2ccc(C(=O)N3CC[C@H](N4CCCC4)C3)cc2)c1` [Example 42, 1-{4-[(3′S)-1,3′-bipyrrolidin-1′-ylcarbonyl]phenyl}-1H-indazole-5-carbonitrile] and `N#Cc1ccc2c(ccn2-c2ccc(C(=O)N3CC[C@@H](N4CCCC4)C3)cc2)c1` [Example 46, 1-{4-[(3′R)-1,3′-bipyrrolidin-1′-ylcarbonyl]phenyl}-1H-indole-5-carbonitrile] cannot be ordered by pKi: > 8.00 for the first, > 8.00 for the second.

First: CC1CCCCN1[C@H]1CCN(C(=O)c2ccc(-n3cnc4ccccc43)cc2)C1 (stereo partly drawn) [Example 12, 1-(4-{[(3S)-3-(2-methylpiperidin-1-yl)pyrrolidin-1-yl]carbonyl}phenyl)-1H-benzimidazole]
Second: C[C@@H]1CCCN1[C@H]1CCN(C(=O)c2ccc(-n3cnc4ccccc43)cc2)C1 [Example 6, (2R,3′S)-1′-[4-(1H-benzimidazol-1-yl)benzoyl]-2-methyl-1,3′-bipyrrolidine]
The pKi of the first is lower: 7.30 to 7.60 for the first, 7.60 to 8.00 for the second. The second binds more tightly here.

`N#Cc1ccc2nn(-c3ccc(C(=O)N4CC[C@H](N5CCCC5)C4)cc3)cc2c1` [Example 43, 2-{4-[(3′S)-1,3′-bipyrrolidin-1′-ylcarbonyl]phenyl}-2H-indazole-5-carbonitrile] and `O=C(c1ccc(-n2cc3cc(F)ccc3n2)cc1)N1CC[C@H](N2CCCC2)C1` [Example 45, (3′S)-1′-[4-(5-fluoro-2H-indazol-2-yl)benzoyl]-1,3′-bipyrrolidine] cannot be ordered by pKi: > 8.00 for the first, > 8.00 for the second.

`Cc1cc2ccccc2n1-c1ccc(C(=O)N2CC[C@H](N3CCCC3)C2)cc1` [Example 38, (3′S)-1′-[4-(2-methyl-1H-indol-1-yl)benzoyl]-1,3′-bipyrrolidine] and `O=C(c1ccc(-n2ccc3ccccc32)cc1)N1CC[C@H](N2CCCC2)C1` [Example 30, (3′S)-1′-[4-(1H-indol-1-yl)benzoyl]-1,3′-bipyrrolidine hydrochloride] cannot be ordered by pKi: > 8.00 for the first, > 8.00 for the second.

Compared with `N#Cc1ccc2c(c1)ncn2-c1ccc(C(=O)N2CC[C@H](N3CCCC3)C2)cc1` [Example 48, 1-{4-[(3′S)-1,3′-bipyrrolidin-1′-ylcarbonyl]phenyl}-1H-benzimidazole-5-carbonitrile fumarate], `O=C(c1ccc(-n2cc3ccc(F)cc3n2)cc1)N1CC[C@H](N2CCCC2)C1` [Example 44, (3′S)-1′-[4-(6-fluoro-2H-indazol-2-yl)benzoyl]-1,3′-bipyrrolidine] is higher in pKi: 7.30 to 7.60 for the first, > 8.00 for the second. The second binds more tightly here.

First: CC1CCCN([C@H]2CCN(C(=O)c3ccc(-n4cnc5ccccc54)cc3)C2)C1 (stereo partly drawn) [Example 8, 1-(4-{[(3S)-3-(3-methylpiperidin-1-yl)pyrrolidin-1-yl]carbonyl}phenyl)-1H-benzimidazole]
Second: Cc1nc2ccccc2n1-c1ccc(C(=O)N2CC[C@H](N3CCN(C)CC3)C2)cc1 [Example 26, 2-methyl-1-(4-{[(3S)-3-(4-methylpiperazin-1-yl)pyrrolidin-1-yl]carbonyl}phenyl)-1H-benzimidazole]
The pKi of the first is higher: > 8.00 for the first, < 7.00 for the second. The first binds more tightly here.
